Patent US20210322507A1, “GENOTYPE-DIRECTED LOCAL DELIVERY OF TARGETED THERAPEUTICS” (Massachusetts Institute of Technology, priority 2017, published 2021)

Assays:
[1] = given systemically; cited from earlier work
[2] = Systemic toxicity analysis of oral GMX-1778; format: in vivo, SCID mice
Protocol: Adult SCID female mice of 6-7 weeks were administered GMX-1778 daily for 5 days by oral gavage (250 mg/kg). Body weights were recorded prior to administration and at the end of the study. Blood samples were analyzed for complete blood count by HemaTrue (Heska Lab Systems) and chemistry panel by DriChem (Heska Lab Systems). Liver and heart were fixed in formalin and analyzed for histologic toxicity by hematoxylin and eosin (H&E) staining. Eyes were removed by enucleation and placed in Davidson's fixative for 24 hours prior to formalin and subsequently analyzed for toxicity on H&E slides.

[3] = Pharmacokinetic analysis of GMX-1778 after oral gavage (plasma and brain, UPLC-ESI-MS); format: in vivo, SCID mice; details: 250 mg/kg oral gavage
Protocol: GMX-1778 was dissolved in 20% captisol (CyDex) and administered by oral gavage to 6-7 week old female SCID mice at a dose of 250 mg/kg. Vehicle treated animals received similar volume of 5% dextrose prepared in 20% captisol by oral gavage. GMX-1778 treated animals were sacrificed at 30 minutes, 2 hours, 6 hours and 24 hours following treatment. Blood was collected by cardiac puncture and centrifuged at 6000 g for 5 minutes. The brain was homogenized in 3 volumes of PBS with 5% bovine serum albumin (Sigma-Aldrich). GMX-1778 was then extracted into the organic phase by a modified protocol described previously^31. Briefly, 25 μL plasma or 100 μL brain homogenate was added to 10 μL FK-866 (250 ng/mL prepared in methanol). Then, 800 μL ethyl acetate was added and the sample was vortexed and mixed overnight. The sample was then centrifuged at 3000 rpm for 10 minutes and 600 μL supernatant was transferred to a new tube. The sample was dried overnight and reconstituted in 200 μL acetonitrile. Stock solutions of GMX-1778 and an internal standard FK-866 were prepared in acetonitrile at a concentration of 500 μg/mL. A10-point calibration curve ranging from 5 to 5000 ng/mL was prepared. Quality control samples were prepared by a similar procedure using an independent stock solution at three concentrations (25, 250, and 2500 ng/mL). For analysis, 2.5 μL sample was injected on the UPLC-ESI-MS system.
Ultra-performance LC (UPLC) separation was carried out on a Waters UPLC aligned with a Waters Xevo TQ-SMS mass spectrometer (Waters Ltd.). MassLynx 4.1 software was used for data acquisition and analysis. LC separation was performed on an Acquity UPLC High Strength Silica Trifunctional C18 (50 mm×2.1 mm; particle size, 1.8 μm) at 50° C. The mobile phase consisted of acetonitrile, 0.1% formic acid, 10 mM ammonium formate solution flowed at a rate of 0.6 mL/minute using a time and solvent gradient composition. The initial mobile phase composition (100%) was held for 1.0 minutes, and then changed to 20% over the next 0.25 minutes. […]

SMILES | Blood-brain barrier penetration / brain accumulation [1] | Liver histology (H&E) ([2]; 250 mg/kg oral GMX-1778) | Hemoglobin (anemia) ([2]; 250 mg/kg oral daily for 5 days, control 9.2±0.5 g/dL) [g/dL] | Uremia (chemistry panel) ([2]; 250 mg/kg oral daily for 5 days, control 15±0.5 mg/dL) [mg/dL] | Body weight after administration (weight loss) ([2]; 250 mg/kg oral daily for 5 days, control dextrose 21.8±0.6 g) [g] | Detectability of drug in brain within 24 hours ([3]; 24 hours) | Maximum (peak) drug concentration in brain ([3]; SCID mice, at 2 hours) [µM] | Maximum (peak) drug concentration in plasma ([3]; SCID mice, at 2 hours) [µM]
O=C(/C=C/c1cccnc1)NCCCCC1CCN(C(=O)c2ccccc2)CC1 [FK866] | does not measurably accumulate in the brain parenchyma | – | – | – | – | – | – | –
N#CN=C(NCCCCCCOc1ccc(Cl)cc1)Nc1ccncc1 [GMX-1778] | partially blood-brain barrier penetrant | eosinophilic cholangitis | 6.7 ± 0.8 | 20.5 ± 1.9 | 17.9 ± 1.1 | no longer detectable | 3.0 ± 1.5 | 18.0 ± 3.6
